{"source": "patent US11028127B2", "about": "“Peptides capable of reactivating p53 mutants” (Yeda Research and Development Co. Ltd., priority 2013, dated 2021)", "key": {"Mut-p53 (R175H p53)": {"biological_target": "T1, Mut-p53 (R175H p53) (Homo sapiens, UniProt P04637, R175H)", "T1 construct": "a hot spot full length mutant p53 Mut-p53 R175H (R175H p53); expressed in transfected cells; host or cells: H1299 (p53-null) cells stably overexpressing R175H p53; cell extract", "test": "p53/DNA binding ELISA kit (R&D), binding to p53-RE DNA", "assay_type": "biochemical", "settings": "H1299-R175H p53 cell extracts, vs background (NT)", "description": "A commercial p53/DNA binding kit (R&D) was used, according to manufacturer instructions. Briefly, 96 well plates were coated with anti-p53 antibody overnight. Cell extracts containing p53 were reacted with an oligonucleotide that contains a p53 consensus binding site, labeled with biotin, in the presence or absence (NT) of test peptides. WT p53 is expected to bind this DNA binding site as well as to the antibody coating the test wells of the plate. Excess p53 and oligos are washed away and streptavidin-HRP is used to quantify the amount of oligos in the well, which is proportional to the DNA bound by p53. TMB assay was performed to determine HRP levels (450 nm). The results are presented as relative absorbance (at 450 nm) (Y-Axis) of each tested sample. MCF7 and the H1299-Mut-p53 (ts) A135V cells serve as positive controls for WT p53.\nFor these experiments, a commercial p53/DNA binding kit of “R&D” (Cat-DYC1355-5 Lot-1273366FA) was used, in accordance with manufacturer guide lines. Briefly, 96 well plates are coated with anti-p53 antibody overnight. Cell extracts containing p53 are reacted with an oligonucleotide that contains a p53 consensus binding site (provided in the kit), labeled with biotin, in the presence or absenc.\ne (NT) of test peptides. WT p53 is expected to bind this DNA binding site as well as to the antibody coating the test wells of the plate. Excess p53 and oligos were washed away and streptavidin-HRP was used to quantify the amount of oligos in the well, which is proportional to the DNA bound by p53. TMB assay was performed to determine HRP (ES001-1L-K) levels (450 nm).\nTo measure the effect of the tested peptides on DNA binding of Mut-p53, a commercial ELISA kit, (R&D Systems DYC1355-5, Lot-1273366FA), was used as a high-throughput assay to quantify p53 activation. This kit uses a 96-well plate format. The kit was used according to manufacturer's instructions. Wells were coated with anti-p53 antibody overnight. Cell extracts containing p53 were reacted with a biotin labeled oligonucleotide containing a p53 consensus binding site (included in the kit). WT p53 is expected to bind this oligo as well as the antibody coating the wells. Excess p53 and oligo were washed away in wash buffer (0.05% Tween 20 in PBS, pH 7.2-7.4; R&D Systems, Catalog #WA126). Then, streptavidin-HRP (R&D Systems, Part 890803, provided in the kit) was added for 15-45 min to quantify the amount of oligo in the well, which is proportional to the DNA bound by p53. If the addition of a peptide to Mut-p53 extracts increases ELISA reading compared to background, this peptide is considered as functionally effective and may be selected for further analysis. […] As with the conformational screening, MCF7 and the H1299-Mut-p53 (ts) A135V cells served as positive controls for WT p53. Extracts were added to the wells coated with αp53-Ab, and after several washing steps, streptavidin-HRP was added for 1 hour, and then plates were washed again and TMB (substrate to HRP) assay was performed."}, "R249S p53": {"biological_target": "T2, R249S p53 (Homo sapiens, UniProt P04637, R249S)", "T2 construct": "expressed in transfected cells; host or cells: H1299 p53-/- cells, transient transfection", "test": "TK-RGC-luc luciferase reporter assay in H1299 p53−/− cells", "assay_type": "cell-based", "settings": "peptides added 24 hours after transfection, read at 48 hours", "procedure": "(§1) FIG. 12 is a bar graph illustrating the relative luciferase activity (cLuc/gLuc) as measured in the various tested samples. Transient transfection of H1299 p53^−/− cells was performed with plasmids expressing WT p53, R175H p53, R249S p53 or empty vector as control, together with TK-RGC-luc, where luciferase expression is under control of a tandem array of multiple p53-responsive elements. 24 hours after transfection, cells were treated with the test peptides. 48 hours after transfection, a sample of the culture medium was taken for bioluminescence measurements.\n(§2) The oligonucleotide (RGC-W) that has the sequence 5′-[…]-3′ (SEQ ID NO:362), and the oligonucleotide mutant RGC oligonucleotide (RGC-M) that has the sequence 5′-[…]-3′ (SEQ ID NO:363), are both derived from Kern et al. (Kern, S. E., et al., Identification of p53 as a sequence-specific DNA-binding protein. Science, 1991. 252(5013): p. 1708-11), and serve as a consensus binding sites for WT p53.\n(§3) These motifs were cloned into the KPN and Eco53IK sites in pCLuc Mini-TK 2 Vector (NEB, Cat No. N0324S ). The Luciferase construct was used to assess transcriptional activation of p53 in test cells.\n(§4) H1299 p53-null cells were cultured overnight and then transfected with the luciferase constructs using MaxFect Transfection Agent (Mediatech) according to the manufacturer's protocol. Prior to the transfection, cell medium was exchanged to OPTI-MEM.\n(§5) The cells were treated with different peptides 24 hours after transfection. After additional 24 hours, growth medium was collected to 96 black plates: 40 μl for Cluc assay, and 20 μl for Gluc assay. Assay was performed using Turner BioSystems Modulus Microplate. Value was calculated by Cluc/gluc/NT (non-treated cells).\n(§6) As additional screening strategy used to identify reactivating peptides was performed in vivo and is based on a reporter gene assay. It measures p53 transcriptional activity by quantifying the activity of a reporter gene, placed under the control of a promoter containing 17 repeats of a p53 consensus binding site (RGC). The luciferase assay is performed on living cells and therefore provides an indication on the effect of test peptides on Mut-p53 function in the context of intact cells.\n(§7) For the in vivo luciferase based screening, H1299 cells were used. Transient transfection of these p53^−/− cells was performed with vectors expressing WT p53, R175H p53, R249S p53 or empty vector as control (Suad, O., et al., Structural basis of restoring sequence-specific DNA binding and transactivation to mutant p53 by suppressor mutations. J. Mol. Biol., 2009. 385(1): p. 249-65). Cells were also co-transfected with TK-RGC-luc (CAT. No. NEB, N0324S). 24 hours after transfection, cells were treated with the test peptides. […]"}, "R175H p53": {"biological_target": "T3, R175H p53 (Homo sapiens, UniProt P04637, R175H)", "T3 construct": "a hot spot full length mutant p53 Mut-p53 R175H (R175H p53); expressed in transfected cells; host or cells: H1299 p53-/- cells, transient transfection", "test": "TK-RGC-luc luciferase reporter assay in H1299 p53−/− cells", "assay_type": "cell-based", "settings": "peptides added 24 hours after transfection, read at 48 hours", "procedure": "as §1, §2, §3, §4, §5, §6, §7"}}}
{"sequence": "YRRLLIGMMWRRRRRRRRRRR [pCAP-68]", "values": [{"measurement": "binding of H1299-R175H p53 extracts to p53-RE DNA", "setting": "Mut-p53 (R175H p53)", "result": "elevate the binding of H1299-R175H p53 extracts to p53-RE DNA"}, {"measurement": "transcription from TK-RGC-luc in the presence of R249S p53", "setting": "R249S p53", "result": "induce transcription from TK-RGC-luc"}, {"measurement": "transcription from TK-RGC-luc in the presence of R175H p53", "setting": "R175H p53", "result": "induce transcription from TK-RGC-luc"}]}
